Several values for one entry are separate records, joined by “and”; a condition that tells them apart may be missing. Identical values can stand only once.
Test system: serum levels of 58 analytes
Assay: Serum biomarker analysis, quantitative immunoassay multi-analyte profiling (Rules-Based Medicine RodentMAP v2.9), AA#80
Format: in vivo, mouse
Conditions: serum; for GCP-2 (Granulocyte Chemotactic Potein-2): LDD 0.0245; for GCP-2 (Granulocyte Chemotactic Potein-2) / IL-17-(Interleukin-17) / GST-alpha (Glutathione S-Transferase alpha) / IL-1beta (Interleukin-1beta) / IL-12p70-(Interleukin-12p70) / FGF-basic (Fibroblast Growth Factor-basic) / Haptoglobin / IL-18 (Interleukin-18) / CRP (C Reactive Protein) / Factor VII / FGF-9 (Fibroblast Growth Factor-9) / GM-CSF (Granulocyte Macrophage-Colony Stimulating Factor) / Apo A1 (Apoilpoprotein A1) / CD40 / Eotaxin / IL-3 (Interleukin-3) / EGF (Epidermal Growth Factor) / IL-1alpha (Interleukin-1alpha) / Endothelin-1 / IL-2 (Interleukin-2) / IFN-gamma (Interferon-gamma) / IL-4 (Interleukin-4) / IL-11 (Interleukin-11) / CD40 Ligand / IL-10 (Interleukin-10) / Fibrinogen: individual mice; for IL-17-(Interleukin-17): LDD 0.152; for GST-alpha (Glutathione S-Transferase alpha): LDD 0.42; for IL-1beta (Interleukin-1beta): LDD 0.447; for IL-12p70-(Interleukin-12p70): LDD 0.5712; for FGF-basic (Fibroblast Growth Factor-basic): LDD 0.577; for Haptoglobin: LDD 0.64; for IL-18 (Interleukin-18): LDD 0.674; for CRP (C Reactive Protein): LDD 0.83; for Factor VII: LDD 0.958; for FGF-9 (Fibroblast Growth Factor-9): LDD 0.9926; for GM-CSF (Granulocyte Macrophage-Colony Stimulating Factor): LDD 8.746; for Apo A1 (Apoilpoprotein A1): LDD 10.4; for CD40: LDD 12; for Eotaxin: LDD 12.25; for IL-3 (Interleukin-3): LDD 21.274; for EGF (Epidermal Growth Factor): LDD 39.1; for IL-1alpha (Interleukin-1alpha): LDD 44.92; for Endothelin-1: LDD 66.95; for IL-2 (Interleukin-2): LDD 67; for IFN-gamma (Interferon-gamma): LDD 67.82; for IL-4 (Interleukin-4): LDD 73.54; for IL-11 (Interleukin-11): LDD 87.38; for CD40 Ligand: LDD 92; for IL-10 (Interleukin-10): LDD 109.26; for Fibrinogen: LDD 170
Procedure: In AA#80, serum samples were collected on Day 27, Day 34, Day 41 and Day 55 via the submandibular vein. Approximately 200 μL of blood per mouse was collected in Microtainer® serum separator tubes. Serum was removed following centrifugation and stored at <−65° C. until analysis.
Selected serum samples were sent to Rules-Based Medicine (Austin, Tex.) for quantitative immunoassay multi-analyte profiling of serum samples, with the goal of identifying biomarkers that could be used to monitor disease progression and response to B7-H4-Ig treatment. Day 27, Day 34, and Day 41 sera from the three representative mice in the B7-H4-Ig group (tag #3332, 3334, and 3338) and three representative mice in the Synagis® group (tag #3324, 3329, and 3330) were analyzed for levels of 58 analytes using the RodentMAP v2.9 Testing Service.
Data from the Rules-Based Medicine analysis was analyzed using Microsoft Excel and GraphPad Prism software. T-tests were performed to compare the levels of each analyte in the B7-H4-Ig versus Synagis® treated samples. No correction was made for multiple comparisons. Additionally, correlation coefficients were calculated for each analyte versus disease score.

Substance: Human B7-H4-Ig: human B7-H4 extracellular domain fused to hinge, CH2 and CH3 regions of human immunoglobulin Cγ1 chain; representative SEQ ID NOs:114-137
- VEGF (Vescular Endotheial Cell Growth Factor) (Day 41, LDD 38.2): 125 pg/mL and 120 pg/mL and 155 pg/mL
- IP-10 (Inducible Protein-10) (Day 41, LDD 40.28): 69.3 pg/mL and 47.6 pg/mL and 59 pg/mL
- LIF (Leukemia Infabitory Factor) (Day 41, LDD 43.6): 1540 pg/mL and 1980 pg/mL
- MCP-5 (Monocyte Chemoattractant Protein-5) (Day 41, LDD 46.38): 48.8 pg/mL and 35.7 pg/mL and 37.9 pg/mL
- SCF (Stem Cell Factor) (Day 41, LDD 75.17): 175 pg/mL and 198 pg/mL and 210 pg/mL
- Lymphotactin (Day 41, LDD 85.48): 187 pg/mL and 148 pg/mL
- VWF (Von Willebrand Factor) (Day 41, LDD 98.6): 113 ng/mL and 111 ng/mL and 133 ng/mL
- GCP-2 (Granulocyte Chemotactic Potein-2) (Day 27): 18 ng/mL and 18.5 ng/mL and 16.6 ng/mL
- IL-17-(Interleukin-17) (Day 27): <low> (2×) and 0.00451 ng/ml
- GST-alpha (Glutathione S-Transferase alpha) (Day 27): <low>
- IL-1beta (Interleukin-1beta) (Day 27): 4.36 ng/ml (2×) and 1.98 ng/ml
- IL-12p70-(Interleukin-12p70) (Day 27): 0.0532 ng/ml (2×) and <low>
- FGF-basic (Fibroblast Growth Factor-basic) (Day 27): 18.8 ng/mL and 17.8 ng/mL and 16.8 ng/mL
- Haptoglobin (Day 27): 161 µg/mL and 204 µg/mL and 123 µg/mL
- IL-18 (Interleukin-18) (Day 27): 13.3 ng/mL and 14.1 ng/mL and 11.7 ng/mL
- CRP (C Reactive Protein) (Day 27): 13.4 µg/mL and 8.16 µg/mL and 7.98 µg/mL
- Factor VII (Day 27): 33 ng/mL and 29.1 ng/mL and 26.4 ng/mL
- FGF-9 (Fibroblast Growth Factor-9) (Day 27): <low>
- GM-CSF (Granulocyte Macrophage-Colony Stimulating Factor) (Day 27): <low>
- Apo A1 (Apoilpoprotein A1) (Day 27): 57.3 µg/mL and 53.7 µg/mL and 42.7 µg/mL
- CD40 (Day 27): 135 pg/ml (2×) and 151 pg/ml
- Eotaxin (Day 27): 626 pg/mL and 613 pg/mL and 623 pg/mL
- IL-3 (Interleukin-3) (Day 27): <low>
- EGF (Epidermal Growth Factor) (Day 27): 18.4 pg/mL and 21.4 pg/mL and 20.4 pg/mL
- IL-1alpha (Interleukin-1alpha) (Day 27): 468 pg/mL and 284 pg/mL and 381 pg/mL
- Endothelin-1 (Day 27): 20.2 pg/ml (2×) and 17.1 pg/ml
- IL-2 (Interleukin-2) (Day 27): <low>
- IFN-gamma (Interferon-gamma) (Day 27): <low> (2×) and 7.14 pg/ml
- IL-4 (Interleukin-4) (Day 27): <low> and 27.9 pg/ml and 17.7 pg/ml
- IL-11 (Interleukin-11) (Day 27): <low> (2×) and 27 pg/ml
- CD40 Ligand (Day 27): 1980 pg/mL and 1550 pg/mL and 1320 pg/mL
- IL-10 (Interleukin-10) (Day 27): <low> (2×) and 94.2 pg/ml
- Fibrinogen (Day 27): <low>
- GCP-2 (Granulocyte Chemotactic Potein-2) (Day 34): 17.1 ng/mL and 18.1 ng/mL and 16.2 ng/mL
- IL-17-(Interleukin-17) (Day 34): 0.0152 ng/mL and 0.00808 ng/mL and 0.00572 ng/mL
- GST-alpha (Glutathione S-Transferase alpha) (Day 34): <low> and 4.16 ng/ml and 2.96 ng/ml
- IL-1beta (Interleukin-1beta) (Day 34): 5.12 ng/mL and 3.58 ng/mL
- IL-12p70-(Interleukin-12p70) (Day 34): 0.0725 ng/ml and <low>
- FGF-basic (Fibroblast Growth Factor-basic) (Day 34): 17.8 ng/mL
- Haptoglobin (Day 34): 281 µg/mL and 162 µg/mL and 140 µg/mL
- IL-18 (Interleukin-18) (Day 34): 11.7 ng/mL and 10.9 ng/mL and 13.1 ng/mL
- CRP (C Reactive Protein) (Day 34): 17.2 µg/mL and 8.79 µg/mL and 12.4 µg/mL
- Factor VII (Day 34): 31.7 ng/mL and 33 ng/mL and 29.1 ng/mL
- FGF-9 (Fibroblast Growth Factor-9) (Day 34): <low>
- GM-CSF (Granulocyte Macrophage-Colony Stimulating Factor) (Day 34): <low>
- Apo A1 (Apoilpoprotein A1) (Day 34): 37.8 µg/mL and 48.5 µg/mL and 54.1 µg/mL
- CD40 (Day 34): 96.7 pg/mL and 147 pg/mL and 136 pg/mL
- Eotaxin (Day 34): 630 pg/mL and 602 pg/mL and 700 pg/mL
- IL-3 (Interleukin-3) (Day 34): <low>
- EGF (Epidermal Growth Factor) (Day 34): 22.4 pg/mL and 14.3 pg/mL and 20.4 pg/mL
- IL-1alpha (Interleukin-1alpha) (Day 34): 361 pg/mL and 447 pg/mL and 587 pg/mL
- Endothelin-1 (Day 34): 22.2 pg/mL and 20.2 pg/mL
- IL-2 (Interleukin-2) (Day 34): <low>
- IFN-gamma (Interferon-gamma) (Day 34): 7.14 pg/mL and 3.58 pg/mL
- IL-4 (Interleukin-4) (Day 34): 17.7 pg/ml and <low>
- IL-11 (Interleukin-11) (Day 34): 17.1 pg/mL
- CD40 Ligand (Day 34): 1370 pg/mL and 2030 pg/mL and 2180 pg/mL
- IL-10 (Interleukin-10) (Day 34): 94.2 pg/ml and <low>
- Fibrinogen (Day 34): 136 ug/ml and <low>
- GCP-2 (Granulocyte Chemotactic Potein-2) (Day 41): 16.9 ng/mL and 16.3 ng/mL and 20.9 ng/mL
- IL-17-(Interleukin-17) (Day 41): 0.00572 ng/ml (2×) and <low>
- GST-alpha (Glutathione S-Transferase alpha) (Day 41): 1.01 ng/mL and 0.477 ng/mL and 1.64 ng/mL
- IL-1beta (Interleukin-1beta) (Day 41): 4.36 ng/ml and 5.12 ng/ml (2×)
- IL-12p70-(Interleukin-12p70) (Day 41): <low> (2×) and 0.0914 ng/ml
- FGF-basic (Fibroblast Growth Factor-basic) (Day 41): 19.9 ng/mL and 17.8 ng/mL and 18.8 ng/mL
- Haptoglobin (Day 41): 267 µg/mL and 270 µg/mL and 193 µg/mL
- IL-18 (Interleukin-18) (Day 41): 13.3 ng/mL and 11.7 ng/mL and 11.5 ng/mL
- CRP (C Reactive Protein) (Day 41): 17.1 µg/mL and 10.6 µg/mL and 12.1 µg/mL
- Factor VII (Day 41): 36.9 ng/mL and 30.4 ng/mL and 27.7 ng/mL
- FGF-9 (Fibroblast Growth Factor-9) (Day 41): <low>
- GM-CSF (Granulocyte Macrophage-Colony Stimulating Factor) (Day 41): <low>
- Apo A1 (Apoilpoprotein A1) (Day 41): 46.8 µg/mL and 49.5 µg/mL and 46 µg/mL
- CD40 (Day 41): 108 pg/mL and 105 pg/mL and 140 pg/mL
- Eotaxin (Day 41): 629 pg/mL and 493 pg/mL and 694 pg/mL
- IL-3 (Interleukin-3) (Day 41): <low>
- EGF (Epidermal Growth Factor) (Day 41): 28.4 pg/mL and 16.3 pg/mL and 18.4 pg/mL
- IL-1alpha (Interleukin-1alpha) (Day 41): 488 pg/mL and 284 pg/mL and 1950 pg/mL
- Endothelin-1 (Day 41): 21.2 pg/mL and 20.2 pg/mL and 16 pg/mL
- IL-2 (Interleukin-2) (Day 41): <low>
- IFN-gamma (Interferon-gamma) (Day 41): 3.58 pg/ml (2×) and 7.14 pg/ml
- IL-4 (Interleukin-4) (Day 41): 35.7 pg/ml and 17.7 pg/ml (2×)
- IL-11 (Interleukin-11) (Day 41): 17.1 pg/ml and <low> (2×)
- CD40 Ligand (Day 41): 1680 pg/mL and 1630 pg/mL and 1830 pg/mL
- IL-10 (Interleukin-10) (Day 41): <low>
- Fibrinogen (Day 41): <low> (2×) and 118 ug/ml

Source: US9011853B2, “B7-H4 fusion proteins and methods of use thereof” (Amplimmune, Inc., priority 2009, dated 2015)
